# Measurements: patent US8637558B2 (Industry-Academic Cooperation Foundation, Chosun University, priority 2008, dated 2014)
# pIC50: −log10 of the molar value.
# Biological target: 15-PGDH (Homo sapiens (Human), UniProt P15428)
# Assay: Assay for the activities of 15-PGDH inhibitors (formation of NADH at 340 nm)
# Assay type: biochemical
# Details: purified 15-PGDH enzyme, 21 μM PGE2, 0.25 mM NAD+, pH 7.5; concentration inhibiting 50% of 15-PGDH activity
# Method: <1-1> Expression and Purification of 15-PGDH
# A 15-PGDH cDNA plasmid containing BamHI and EcoRI sites of the pGES-2T expression vector was used to transform Escherichia coli BL-21 lysS in accordance with the ordinarily used in the art. The transformed cells were grown in 500 mL LB medium containing 50 μg/mL ampicillin at 37° C. while being stirred at 220 rpm until the OD600 reached 0.6. Isopropyl β-D-thiogalactoside (1 mM) was added and the cells were allowed to grow for 12 hours at 25° C. Then, the pellets were harvested by centrifugation at 4000×g for 30 minutes at 4° C. The cell pallets were resuspended in 20 mL cell lysis buffer (1×PBS buffer (pH 7.4) containing 1 mM EDTA and 0.1 mM DTT) and sonicated (14×10 s at 4° C.). The disrupted cells were centrifuged at 4000×g for 20 minutes at 4° C. The supernatant was loaded slowly on a glutathione-sepharose 4B column, which was equilibrated at 4° C. with a cell lysis buffer (1×PBS buffer (pH 7.4) containing 1 mM EDTA and 0.1 mM DTT). The column was washed with the lysis buffer until OD280 reached below 0.005. Then, 15-PGDH was eluted from the glutathione-sepharose 4B column at room temperature for 5 minutes by using the elution buffer (50 mM Tris-HCl (pH 8.0) containing 10 mM reduced glutathione, 1 mM EDTA and 0.1 mM DTT). The concentration and the purity of the purified enzyme were determined by SDS-PAGE.
# <1-2> Assay for the Activities of 15-PGDH Inhibitors
# The absorbance of the reaction mixture was recorded at 340 nm so that the activities of the derivatives according to the present invention as 15-PGDH inhibitors were determined from a standard curve prepared from the absorbance of various concentrations of NADH at 340 nm.
# Chain of 15-PGDH (P15428 whole entry): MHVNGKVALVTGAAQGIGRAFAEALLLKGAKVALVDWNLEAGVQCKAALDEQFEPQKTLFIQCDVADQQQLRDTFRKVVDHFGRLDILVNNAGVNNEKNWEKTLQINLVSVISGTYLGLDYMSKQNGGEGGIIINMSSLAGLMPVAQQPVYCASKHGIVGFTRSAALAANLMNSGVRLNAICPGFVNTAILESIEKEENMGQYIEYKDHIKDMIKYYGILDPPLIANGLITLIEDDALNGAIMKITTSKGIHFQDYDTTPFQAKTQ
row,Compound,pIC50
1,"O=C1NC(=O)/C(=C/c2ccc(OCCC3CCCCC3)c(C(F)(F)F)c2)S1 [Derivative 16, 5-(4-(2-cyclohexylethoxy)-3-(trifluoromethyl)benzylidene)thiazolidine-2,4-dione]",7.14
2,"COc1cc(/C=C2\SC(=O)NC2=O)ccc1OCCc1cccs1 [Derivative 102, 5-(3-methoxy-4-(2-(thiophen-2-yl)ethoxy)benzylidene)thiazolidine-2,4-dione]",6.17
3,"Cc1ccc(COc2ccc(/C=C3\SC(=O)NC3=O)cc2)cc1 [Derivative 27, 5-(4-(4-methylbenzyloxy)benzylidene)thiazolidine-2,4-dione]",6.59
4,"O=C1NC(=O)/C(=C/c2ccc(OCc3ccc(CCl)cc3)cc2)S1 [Derivative 36, 5-(4-(4-(chloromethyl)benzyloxy)benzylidene)thiazolidine-2,4-dione]",6.90
5,"COc1cc(/C=C2\SC(=O)NC2=O)ccc1OCCC1CCCCC1 [Derivative 8, 5-(4-(2-cyclohexylethoxy)-3-methoxybenzylidene)thiazolidine-2,4-dione]",7.64
6,"O=C1NC(=O)/C(=C/c2ccc(OCCCC3CCCCC3)cc2Cl)S1 [Derivative 97, 5-(2-chloro-4-(3-cyclohexylpropoxy)benzylidene)thiazolidine-2,4-dione]",6.55
7,"O=C1NC(=O)/C(=C/c2cccc(OCCCc3ccccc3)c2Cl)S1 [Derivative 75, 5-(2-chloro-3-(3-phenylpropoxy)benzylidene)thiazolidine-2,4-dione]",7.35
8,"O=C1NC(=O)/C(=C/c2ccc(OCCC3CCCCC3)c([N+](=O)[O-])c2)S1 [Derivative 49, 5-(4-(2-cyclohexylethoxy)-3-nitrobenzylidene)thiazolidine-2,4-dione]",7.23
9,"O=C1NC(=O)/C(=C/c2cc(F)c(OCCC3CCCCC3)c(Cl)c2)S1 [Derivative 77, 5-(3-chloro-5-fluoro-4-(2-cyclohexylethoxy)benzylidene)thiazolidine-2,4-dione]",6.75
10,"O=C1NC(=O)/C(=C/c2ccc(OCCC3CCCC3)c(Cl)c2)S1 [Derivative 108, 5-[3-chloro-4-(2-cyclopentylethoxy)benzylidene]-1,3-thiazolidine-2,4-dione]",7.00
11,"O=C1NC(=O)/C(=C/c2ccc(OCCC3CCCCC3)cc2C(F)(F)F)S1 [Derivative 81, 5-(4-(2-cyclohexylethoxy)-2-(trifluoromethyl)benzylidene)thiazolidine-2,4-dione]",6.86
12,"O=C1NC(=O)/C(=C/c2ccc(OC3CCCCC3)c(Cl)c2)S1 [Derivative 30, 5-(3-chloro-4-(cyclohexyloxy)benzylidene)thiazolidine-2,4-dione]",7.31
13,"CC1CCC(COc2ccc(/C=C3\SC(=O)NC3=O)cc2)CC1 (stereo not drawn) [Derivative 37, 5-(4-((4-methylcyclohexyl)methoxy)benzylidene)thiazolidine-2,4-dione]",7.18
14,"O=C1NC(=O)/C(=C/c2ccc(OCC3CCCCC3)cc2Cl)S1 [Derivative 96, 5-(2-chloro-4-(3-cyclohexylmethoxy)benzylidene)thiazolidine-2,4-dione]",5.61
15,"COc1ccc(/C=C2\SC(=O)NC2=O)c(Cl)c1OCCC1CCCCC1 [Derivative 80, 5-(2-chloro-3-(2-cyclohexylethoxy)-4-methoxybenzylidene) thiazolidine-2,4-dione]",6.96
16,"O=C1NC(=O)/C(=C/c2cccc(OCCC3CCCC3)c2Cl)S1 [Derivative 107, 5-[2-chloro-3-(2-cyclopentylethoxy)benzylidene]-1,3-thiazolidine-2,4-dione]",6.81
17,"O=C1NC(=O)/C(=C/c2ccc(OCCCc3ccccc3)c(Cl)c2)S1 [Derivative 70, 5-(3-chloro-4-(3-phenylpropoxy)benzylidene)thiazolidine-2,4-dione]",7.42
18,"Cc1ncsc1CCOc1ccc(/C=C2\SC(=O)NC2=O)cc1 [Derivative 19, 5-(4-(2-(4-methylthiazol-5-yl)ethoxy)benzylidene)thiazolidine-2,4-dione]",5.93
19,"O=C1NC(=O)/C(=C/c2ccc(OCc3ccccc3)cc2Cl)S1 [Derivative 85, 5-(4-(benzyloxy)-2-chlorobenzylidene)thiazolidine-2,4-dione]",6.31
20,"COc1cc(/C=C2\SC(=O)NC2=O)cc(OC)c1OCCC1CCCCC1 [Derivative 10, 5-(4-(2-cyclohexylethoxy)-3,5-dimethoxybenzylidene)thiazolidine-2,4-dione]",7.02
21,"O=C1NC(=O)/C(=C/c2ccc(OCCC3CCCCC3)c(Br)c2)S1 [Derivative 15, 5-(3-bromo-4-(2-cyclohexylethoxy)benzylidene)thiazolidine-2,4-dione]",8.18
22,"O=C1NC(=O)/C(=C/c2ccc(OCC3CCCCC3)c(Cl)c2)S1 [Derivative 31, 5-(3-chloro-4-(cyclohexylmethoxy)benzylidene)thiazolidine-2,4-dione]",7.57
23,"O=C1NC(=O)/C(=C/c2cccc(OCCC3CCCCC3)c2Cl)S1 [Derivative 34, 5-(2-chloro-3-(2-cyclohexylethoxy)benzylidene)thiazolidine-2,4-dione]",7.75
24,"COc1ccc(COc2ccc(/C=C3\SC(=O)NC3=O)cc2)cc1 [Derivative 28, 5-(4-(4-methoxybenzyloxy)benzylidene)thiazolidine-2,4-dione]",6.14
25,"O=C1NC(=O)/C(=C/c2ccc(OCCc3ccccn3)cc2)S1 [Derivative 6, 5-(4-(2-(pyridin-2-yl)ethoxy)benzylidene)thiazolidine-2,4-dione]",6.23
26,"COc1cc(/C=C2\SC(=O)NC2=O)cc(Cl)c1OCCC1CCCCC1 [Derivative 78, 5-(3-chloro-4-(2-cyclohexylethoxy)-5-methoxybenzylidene) thiazolidine-2,4-dione]",7.30
27,"O=C1NC(=O)/C(=C/c2ccc(O)cc2)S1 [Derivative 39, 5-(4-hydroxybenzylidene)thiazolidine-2,4-dione]",5.00
28,"COc1ccc(/C=C2\SC(=O)NC2=O)cc1OCCC1CCCCC1 [Derivative 67, 5-(3-(2-cyclohexylethoxy)-4-methoxybenzylidene)thiazolidine-2,4-dione]",5.94
29,"O=C1NC(=O)/C(=C/c2ccc(OCc3ccc4c(c3)OCO4)cc2)S1 [Derivative 29, 5-(4-(benzo[d][1,3]dioxol-5-ylmethoxy)benzylidene)thiazolidine-2,4-dione]",6.51

# Further lines, results first:
row,pIC50,Compound
1,6.28,O=C1NC(=O)C(Cc2ccc(OCC3CCCCC3)c(Cl)c2)S1 (stereo not drawn)
2,7.69,"COC(=O)C1CCC(COc2ccc(/C=C3\SC(=O)NC3=O)cc2)CC1 (stereo not drawn) [Derivative 66, methyl-4-((4-((2,4-dioxothiazolidine-5-ylidene)methyl)phenoxy)methyl)cyclohexane carboxylate]"
3,5.86,"O=C1NC(=O)/C(=C/c2ccc(OCCN3CCS(=O)(=O)CC3)cc2)S1 [Derivative 5, 5-[4-(2-thiomorpholine-1,1-dioxideethoxy)benzylidene]thiazolidine-2,4-dione]"
4,6.90,"O=C1NC(=O)C(Cc2ccc(OCC3CCCCC3)c(Cl)c2)S1 (single isomer, unassigned)"
5,6.02,"CC(C)OCCOc1ccc(/C=C2\SC(=O)NC2=O)cc1 [Derivative 1, 5-(4-(2-isopropoxyethoxy)benzylidene)thiazolidine-2,4-dione]"
6,5.66,"O=C1NC(=O)C(Cc2ccc(OCCC3CCCC3)cc2)S1 (stereo not drawn) [Derivative 118, 5-(4-(2-cyclopentylethoxy)benzyl)thiazolidine-2,4-dione]"
7,6.94,"O=C1NC(=O)/C(=C/c2ccc(OCCC3CCCC3)cc2)S1 [Derivative 24, 5-(4-(2-cyclopentylethoxy)benzylidene)thiazolidine-2,4-dione]"
8,5.85,"O=C1NC(=O)/C(=C/c2ccc(OCCN3CCCCC3)cc2)S1 [Derivative 14, 5-(4-(2-(piperidin-1-yl)ethoxy)benzylidene)thiazolidine-2,4-dione]"
9,5.52,"O=C1NC(=O)/C(=C/c2ccc(OCCCN3CCS(=O)(=O)CC3)cc2)S1 [Derivative 21, 5-[4-(3-thiomorpholine-1,1-dioxidepropoxy)benzylidene]-thiazolidine-2,4-dione]"
10,6.83,"O=C1NC(=O)/C(=C/c2ccc(OCCc3ccsc3)cc2)S1 [Derivative 4, 5-(4-(2-(thiophen-3-yl)ethoxy)benzylidene)thiazolidine-2,4-dione]"
11,5.28,"O=C1NC(=O)C(Cc2ccc(OCCN3CCS(=O)(=O)CC3)cc2)S1 (stereo not drawn) [Derivative 119, 5-(4-(2-thiomorpholine-1,1-dioxideethoxy)benzyl)-2,4-thiazolidinedione]"
12,5.90,"O=C1NC(=O)C(Cc2ccc(OCc3ccccc3)cc2)S1 (stereo not drawn) [Derivative 124, 5-(4-(benzyloxy)benzyl)thiazolidine-2,4-dione]"
13,6.40,"Cc1cc(CC2SC(=O)NC2=O)ccc1OCCC1CCCCC1 (stereo not drawn) [Derivative 121, 5-(4-(2-cyclohexylethoxy)-3-methylbenzyl)thiazolidine-2,4-dione]"
